Tested on: delayed type hypersensitivity (picryl chloride induced foot pad swelling)
Assay: Murine delayed type hypersensitivity (DTH) response, picryl chloride
Type: in vivo, mouse (Balb/c)
Method: The activity of ergoline compounds was also evaluated in a murine delayed-type hypersensitivity (DTH) assay. The DTH assay was performed in substantial accordance with the method set forth in Example 1. Briefly, mice were sensitized by topical administration of picryl chloride on day 1 of the assay. On day 4 paw size was determined and recorded and the paw was then challenged with picryl chloride. The challenged paw was remeasured on day 5 to quantitate the DTH response via the increase in paw size.
Male Balb/c mice (Charles River) weighing 20 to 25 g were used in all DTH studies. When adrenalectomized studies were carried out, sham surgery and adrenalectomized mice were obtained from the vendor. Animals were maintained on a 12:12 hour light:dark cycle. Mice were allowed ad lib access for food (Purina lab chow) and water (normal saline for adrenalectomized animals).
A DTH response was assessed by measuring the degree of rear foot pad swelling induced by picryl chloride. On day 0, mice were sensitized with 100 μl of 5% picryl chloride (in ethanol), which was applied to a shaved abdomen. Negative control groups were shaved but not sensitized. On day 3, mice were anesthetized with methoxyflurane, and the baseline rear foot pad thickness was measured with a micrometer (Mitutoyo) in μ, and was recorded in duplicate. Fifty μl of picryl chloride was then applied to each pad with a pipet (Rainen) while the animal was unconscious. The negative controls also received picryl chloride at this point to control for primary irritancy. Twenty-four hours later, the mice were sacrificed by CO2 asphyxiation and each rear foot pad was again measured in duplicate, and any evidence of foot pad swelling was calculated. The mean rear foot swelling change of both pads for each animal from days 3 to 4 was used as the index of immune function in the DTH assay.
Unless otherwise stated all animals were given four subcutaneous doses of test compound just prior to picryl chloride sensitization on day 0, on day 1 and day 2, and just prior to picryl chloride challenge on day 3. In a few experiments, compounds were administered via oral or intraperitoneal routes. All drugs were delivered as suspensions in 1% carboxy-methylcellulose (also contained 0.8% NaCl, 1% polysorbate-80, 1.4% benzyl alcohol). Carboxymethyl-cellulose (1%) was used in control injections.

CCCN1C[C@H](CSC)C[C@@H]2c3cccc4c3c(cn4C(C)C)C[C@H]21 [Compound 1, D-1-isopropyl-6-n-propyl-8β-methylthiomethyl ergoline]
reduction of paw swelling in DTH (FIG. 4 Panel A): efficacy
reduction of DTH paw swelling, 4 day vs two day treatment (FIG. 4 Panel A, 4 days vs two day treatment schedule): superior efficacy
dose for anti-inflammatory effects (FIG. 5): 3 to 10 mg/kg

— patent US5416090A, “Method of treating inflammation” (priority 1992, dated 1995)
